Source: BindingDB's records for doi:10.7270/Q2DV1H9K (University of Pittsburgh, 2008)
pIC50: −log10 of the molar value.

target: Cyclin-dependent kinase 7 (Homo sapiens, UniProt P50613); assay: CDK7 kinase inhibition, dose response, counter-screen for PKD inhibitor project, biochemical, 57K library addition (AID 1380)
Sequence (P50613 whole entry): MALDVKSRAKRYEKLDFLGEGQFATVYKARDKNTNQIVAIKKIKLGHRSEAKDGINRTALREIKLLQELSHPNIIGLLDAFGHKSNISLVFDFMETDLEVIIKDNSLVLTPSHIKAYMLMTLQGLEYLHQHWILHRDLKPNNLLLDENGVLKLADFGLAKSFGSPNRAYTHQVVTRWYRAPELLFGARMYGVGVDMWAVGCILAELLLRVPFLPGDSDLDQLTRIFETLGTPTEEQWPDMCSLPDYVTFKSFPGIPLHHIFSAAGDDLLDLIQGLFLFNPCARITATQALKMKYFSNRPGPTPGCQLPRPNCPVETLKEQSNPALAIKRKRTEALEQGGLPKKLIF

Row | SMILES | pIC50
1 | CSc1ccccc1C(=O)NCc1ccc(F)cc1 | < 4.00
2 | O=C(CSc1ccc2nnc(-c3cccnc3)n2n1)c1ccccc1 [1-phenyl-2-[[3-(3-pyridinyl)-[1,2,4]triazolo[4,3-b]pyridazin-6-yl]thio]ethanone] | < 4.00
3 | CCOC(=O)c1sc(=NC(=O)CCS(=O)(=O)c2ccccc2)n(C)c1C [2-[3-(benzenesulfonyl)-1-oxopropyl]imino-3,4-dimethyl-5-thiazolecarboxylic acid ethyl ester] | < 4.00
4 | CCCc1cc(=O)[nH]c(SCCCCN2C(=O)c3ccccc3C2=O)n1 [2-[4-[(4-oxidanylidene-6-propyl-1H-pyrimidin-2-yl)sulfanyl]butyl]isoindole-1,3-dione] | < 4.00
5 | Cc1c(C#N)c(N)nc(Cl)c1C#N [2-amino-6-chloro-4-methyl-3,5-pyridinedicarbonitrile] | < 4.00
6 | CC(N=Nc1ncc(Cl)cc1Cl)c1ccccn1 (stereo not drawn) [3,5-dichloro-N-(1-pyridin-2-ylethylideneamino)pyridin-2-amine] | < 4.00
7 | O=C1CSCN1c1cc(Cl)ccc1Cl [3-(2,5-dichlorophenyl)-1,3-thiazolan-4-one] | < 4.00
8 | O=C(O)c1cc(C(=O)C2CCCCC2)c[nH]1 [4-(cyclohexylcarbonyl)-1H-pyrrole-2-carboxylic acid] | < 4.00
9 | CC1Cc2ccccc2N1c1ncnc(N)c1[N+](=O)[O-] (stereo not drawn) [6-(2-methyl-2,3-dihydro-1H-indol-1-yl)-5-nitro-4-pyrimidinamine] | 5.09
10 | Cc1cc(NC(=O)CCC(=O)N(Cc2ccco2)C(C(=O)NCC2CCCO2)c2ccncc2)no1 (stereo not drawn) [N'-(furan-2-ylmethyl)-N-(5-methyl-1,2-oxazol-3-yl)-N'-[2-oxidanylidene-2-(oxolan-2-ylmethylamino)-1-pyridin-4-yl-ethyl]butanediamide] | < 4.00
11 | O=C(CSc1ccncc1)Nc1ccc2ccccc2c1 [N-naphthalen-2-yl-2-pyridin-4-ylsulfanylacetamide] | < 4.00
12 | Cn1cccc1C(=O)NC(=O)COC(=O)c1cc(S(=O)(=O)N2CCCCC2)ccc1Cl [[2-[(1-methylpyrrol-2-yl)carbonylamino]-2-oxidanylidene-ethyl] 2-chloranyl-5-piperidin-1-ylsulfonyl-benzoate] | < 4.00

The remaining lines, values ahead:

Row | pIC50 | SMILES
13 | < 4.00 | O=[N+]([O-])c1ccc(Nc2c3ccccc3nc3ccccc23)cc1 [MLS000723809]
14 | < 4.00 | COc1ccc(Cn2c(=O)[nH]c3cc(C(=O)NC4CCCC4)ccc3c2=O)cc1 [MLS000730065]
15 | < 4.00 | O=C(NNC1=Nc2cccc3cccc1c23)c1ccc(Br)cc1 [SMR000260645]
16 | < 4.00 | O=C(Nc1ccccc1C(=O)N1CCCC1)C1COc2ccccc2O1 (stereo not drawn) [SMR000287780]
17 | < 4.00 | COC(=O)c1c(NC(=O)C2C3CCC(C3)C2C(=O)O)sc2c1CCCCC2 (stereo not drawn) [SMR000298221]
18 | < 4.00 | COc1ccc(CNC(=O)C2Cc3ccccc3CN2C(=O)c2ccco2)cc1 (stereo not drawn) [SMR000343177]
